Measurements: the NIST ThermoML archive (doi:10.1016/j.jct.2008.01.023)

What was measured:
[1] = 298.15 K; 101.33 kPa; Liquid
[2] = refractive index (Na D-line) (dimensionless); details: 298.15 K; 101.33 kPa; Liquid; Standard Abbe refractometry
[3] = refractive index (Na D-line) (dimensionless); xn = mol fraction of the nth substance listed; details: 298.15 K, 101 kPa, Liquid, Standard Abbe refractometry
[4] = xn = mol fraction of the nth substance listed; details: 298.15 K, 101 kPa, Liquid

CCCCn1cc[n+](C)c1.F[B-](F)(F)F [1-butyl-3-methylimidazolium tetrafluoroborate]
Details | mass density [kg/m3] | refractive index
[1] | 1201.41 | –
[2] | – | 1.4219

CCCCn1cc[n+](C)c1.F[B-](F)(F)F [1-butyl-3-methylimidazolium tetrafluoroborate] + CCO
Details | mass density, [4] [kg/m3] | refractive index, [3]
x1 = 0.0517 | 850.45 | 1.3703
x1 = 0.0918 | 891.63 | 1.3767
x1 = 0.1995 | 976.13 | 1.3898
x1 = 0.2495 | 1007.41 | 1.3943
x1 = 0.2518 | 1042.9 | 1.3946
x1 = 0.3228 | 1081.97 | 1.3998
x1 = 0.4219 | 1117.11 | 1.4058
x1 = 0.5356 | 1138.94 | 1.4105
x1 = 0.6244 | 1156.56 | 1.4137
x1 = 0.709 | 1177.74 | 1.4161
x1 = 0.8295 | 1192.74 | 1.4188

CCCCn1cc[n+](C)c1.F[B-](F)(F)F [1-butyl-3-methylimidazolium tetrafluoroborate] + OCCO
Details | mass density, [4] [kg/m3] | refractive index, [3]
x1 = 0.0517 | 1123.11 | 1.4287
x1 = 0.138 | 1138.78 | 1.4261
x1 = 0.1928 | 1146.51 | 1.425
x1 = 0.2567 | 1154.22 | 1.424
x1 = 0.3 | 1158.72 | 1.4235
x1 = 0.3324 | 1161.86 | 1.4231
x1 = 0.402 | 1167.89 | 1.4226
x1 = 0.4162 | 1168.98 | 1.4225
x1 = 0.4997 | 1175.1 | 1.4219
x1 = 0.5803 | 1180.22 | 1.4216
x1 = 0.632 | 1183.29 | 1.4215
x1 = 0.696 | 1186.82 | 1.4215
x1 = 0.8045 | 1192.48 | 1.4215
x1 = 0.9083 | 1197.33 | 1.4217

CCOCCOCCO [3,6-dioxa-1-octanol]
Details | mass density [kg/m3] | refractive index
[1] | 983.68 | –
[2] | – | 1.4253

CCOCCOCCO [3,6-dioxa-1-octanol] + CCCCn1cc[n+](C)c1.COS(=O)(=O)[O-]
Details | mass density, [4] [kg/m3] | refractive index, [3]
x2 = 0.0517 | 1003.36 | 1.4307
x2 = 0.0891 | 1016.08 | 1.4339
x2 = 0.1483 | 1035.02 | 1.4388
x2 = 0.2233 | 1057.1 | 1.4443
x2 = 0.2901 | 1074.98 | 1.4488
x2 = 0.3194 | 1082.5 | 1.4507
x2 = 0.3902 | 1099.82 | 1.4548
x2 = 0.4732 | 1118.6 | 1.4593
x2 = 0.5364 | 1131.83 | 1.4626
x2 = 0.6235 | 1148.55 | 1.4663
x2 = 0.696 | 1161.73 | 1.4697
x2 = 0.8065 | 1179.9 | 1.4735
x2 = 0.8947 | 1193.18 | 1.4763

CCOCCOCCO [3,6-dioxa-1-octanol] + CCCCn1cc[n+](C)c1.F[B-](F)(F)F
Details | mass density, [4] [kg/m3] | refractive index, [3]
x2 = 0.0544 | 1003.36 | 1.4268
x2 = 0.1016 | 1018.2 | 1.4274
x2 = 0.1492 | 1032.87 | 1.4277
x2 = 0.1941 | 1045.1 | 1.4278
x2 = 0.2686 | 1065.22 | 1.4278
x2 = 0.3215 | 1078.37 | 1.4277
x2 = 0.3932 | 1094.93 | 1.4273
x2 = 0.5108 | 1119.82 | 1.4265
x2 = 0.6016 | 1137.49 | 1.4257
x2 = 0.6657 | 1149.16 | 1.425
x2 = 0.6998 | 1155.07 | 1.4247
x2 = 0.8304 | 1176.5 | 1.4235
x2 = 0.9551 | 1195.04 | 1.4223

CCO [ethanol]
Details | mass density [kg/m3] | refractive index
[1] | 785.18 | –
[2] | – | 1.3593

C[N+](=O)[O-] [nitromethane]
Details | mass density [kg/m3] | refractive index
[1] | 1131.17 | –
[2] | – | 1.3796

C[N+](=O)[O-] [nitromethane] + CCCCn1cc[n+](C)c1.F[B-](F)(F)F
Details | mass density, [4] [kg/m3] | refractive index, [3]
x2 = 0.0512 | 1148.18 | 1.3889
x2 = 0.0991 | 1158.64 | 1.3952
x2 = 0.1392 | 1165.19 | 1.399
x2 = 0.2026 | 1173.12 | 1.4038
x2 = 0.2986 | 1181.43 | 1.4089
x2 = 0.3565 | 1185.14 | 1.4112
x2 = 0.3972 | 1187.27 | 1.4125
x2 = 0.4553 | 1189.89 | 1.4142
x2 = 0.5231 | 1192.3 | 1.4158
x2 = 0.5949 | 1194.48 | 1.4172
x2 = 0.6863 | 1196.69 | 1.4188
x2 = 0.8073 | 1198.86 | 1.4202
x2 = 0.8634 | 1199.69 | 1.4207
